Assays:
platelets = test: Ristocetin-induced vWF-dependent platelet aggregation in platelet-rich plasma; assay type: cell-based, human
Experimental: Fresh blood from healthy volunteers was anticoagulated with 1/7 volume of ACD (2.5% trisodium citrate, 2% dextrose and 1.5% citric acid). Platelets were washed with CGS buffer (sodium chloride 0.12 M, trisodium citrate 0.0129 M and d-glucose 0.03 M, pH 6.5), resuspended in modified Tyrode's solution and allowed to incubate at 22° C. for 1 hours as previously described. In experiments using platelet-rich plasma (PRP), 1/10 volume of 3.8% trisodium citrate was used as anticoagulant. Platelet aggregation was measured using a turbidometric platelet aggregometer (Chrono-Log) at 37° C. vWF-dependent platelet aggregation was induced by addition of ristocetin or botrocetin to PRP. To differentiate CPIb-IX-mediated platelet agglutination from the second wave of integrin-dependent platelet aggregation, final concentrations of ristocetin were adjusted in each experiment to achieve a two-wave curve of aggregation. Washed platelets were used in platelet aggregation induced by a-thrombin (Enzyme Research Laboratories). To examine the effects of PKG, 100 μM of membrane permeable cGMP analogs, 8-bromo-cGMP or 8-dibutyl-cGMP (Calbiochem), or 1 μM sildenafil citrate (Pfizer) and added simultaneously with subthreshold concentrations of agonists. PKG inhibitors KT5823 (2 pM) and Rp-8PCPT-cGMP (0.2 mM) were preincubated with platelets at 37° C. for 5 minutes before addition of agonists.
In FIG. 3A, platelet rich-plasma (PRP) was preincubated at 37° C. for 5 mm with PKG inhibitors KT5823 (2 pM) or Rp-8pCPT-cGMP (0.2 μM). PRP was also incubated with DMSO (vehicle for KT5823), a PKA inhibitor, KT5720 (2 pM), or buffer (Control). The vWF modulator, ristocetin, was then added to induce vWF-GPIb-IX interaction. […] In FIG. 3B, a subthreshold concentration of ristocetin was added to PRP immediately followed by addition of 8-bromo-cGMP or buffer (Control). PRP also was preincubated with integrin inhibitor RGDS before adding ristocetin and 8-bromo-cGMP. In FIG. 3C, platelets were preincubated with or without PKG inhibitor KT5823, then allowed to spread on vWF-coated glass chamber slides. Platelets were stained with an anti-GPIb antibody, and fluorescein-labeled secondary antibody. The slides were imaged under a confocal microscope (magnification =630×).
In FIG. 6A, increasing concentrations of sildenafil or control 0.15 M NaCl solution were added to platelet-rich plasma followed by a subthreshold concentration of ristocetin. Platelet aggregation was recorded using a platelet aggregometer. In FIG. 6B, sildenafil or control buffer was added to washed platelets followed by addition of subthreshold doses of thrombin to induce platelet aggregation. It was noted that platelet aggregation occurs in the presence of sildenafil. The figure includes the representative results of at least three experiments.
In FIG. 7A, PRP was preincubated with 0.1 mM 8-bromo-cGMP for increasing lengths of time at 37° C. as indicated. The vWF modulator, ristocetin (1.25 mg/ml), then was added to induce platelet aggregation in a turbidometric platelet aggregometer. In FIG. 7B, PRP was preincubated with a high concentration of 8-bromo-cGMP (1 mM) for 5 minutes. Ristocetin then was added to induce platelet aggregation. In FIGS. 7C and 7D, washed platelets in modified Tyrode's solution were preincubated with 1 mM 8-bromo-cGMP (C), or various concentrations of 8-pCPT-cGMP (D) at 37° C. for 5 minutes. Thrombin (0.05 u/ml) then was added to induce platelet aggregation.

[1] = system: 123 cells (CHO cells expressing recombinant human GPIb-IX and integrin αIIbβ3); test: vWF-induced GPIb-IX-mediated activation of integrin αIIbβ3 (Oregon green-labeled fibrinogen binding, flow cytometry); assay type: cell-based, Chinese Hamster; settings: PKG-transfected 123 cells, 12 μg/ml vWF, 1 mg/ml ristocetin, FIGS. 1B, 1C
Experimental: Human PKG Iβ cDNA was cloned by RT-PCR, using human platelet mRNA as templates. Sequence of the human PKG Iβ cDNA fragment matches the published sequence. Cloning of human PKG Iα cDNA was described previously. PKG Iα or Iβ in pCDNA3.1/Zeo+vector was transfected into 123 cells (CHO cells expressing recombinant human CPIb-IX and integrin αIIbβ3 using Lipofectamine plus (BRL). Expression of PKG was assessed by Western blotting with an antihuman PKG I antibody (Calbiochem). The kinase activity of the expressed enzymes was measured in cell homogenates using BPDEtide (Calbiochem) as substrate as detailed previously. vWF-induced GPIb-IX-mediated activation of integrin αIIbβ3 was examined by flow cytometry analysis of Oregon green-labeled fibrinogen binding to integrln αIIbβ3 as described previously. Briefly, cells were detached from tissue culture plate using 0.5 mM EDTA, washed at 4° C. and resuspended in modified Tyrode's solution. Cells then were incubated with Oregon green-labeled fibrinogen (20 μg/ml) in the presence of ristocetin and vWF at 22° C. for 30 minutes, and analyzed by FACScalibur flow cytometer. Nonspecific binding of fibrinogen was estimated by measuring fibrinogon binding in the presence of a specific integrin inhibitor RGDS (1 mM) (see Refs. 13 and 43-45).
In FIG. 1A, CHO cells expressing GPLb-JX and integrin αIIbβ3 (123 cells) were transfected with cDNA encoding PKGIα or vector. Expression of PKG Ia in 123 cells was detected by Western blotting with an anti-human PKG I antibody (Insert), and recombinant PKG activity was determined in the absence or presence of 20 μM 8-bromo-cGMP as previously described. Results are expressed as mean +SD (n=3). For FIGS. 1B and 1C, reconstitution of GPIb-IX-mediated integrin activation in CHO cells was published (see Ref. 13). […] Cells were analyzed by flow cytometry. Quantitative results from three experiments are expressed as fibrinogen binding indices (total bound fluorescence (Fg)/nonspecifically bound fluorescence (Fg+RGDS)), and shown in FIG. 1B (mean ±SD).

Question: Which “preincubation time required to inhibit platelets” value (platelets; 1 mM 8-bromo-cGMP, FIGS. 7B, 7C) does the source give for `Nc1nc2c(nc(Br)n2[C@@H]2O[C@@H]3COP(=O)(O)O[C@H]3[C@H]2O)c(=O)[nH]1` [8-bromo-cGMP] here?
Answer: Its value is “less than 5 minutes”.

Question: And the “preincubation time after which the inhibitory effect on platelet aggregation becomes significant” value (platelets; 8-bromo-cGMP 100 μM (0.1 mM), PRP, 37° C., ristocetin 1.25 mg/ml, FIG. 7A)?
Answer: The value was 10 min.

Question: And the “GPIb-IX-dependent platelet activation, agent added simultaneously with ristocetin” value (platelets; 8-bromo-cGMP 100 μM, FIG. 7A)?
Answer: Its value is “promoted”.

Question: And the “platelet aggregation together with a subthreshold concentration of ristocetin” value (platelets; PRP, agent added with subthreshold ristocetin (1 mg/mm [sic]) (or botrocetin), FIGS. 3B, 6A)?
Answer: Its value is “induced integrin-dependent platelet aggregation”.

Question: What about the “preincubation time required for a slight inhibitory effect” value (platelets; in some experiments, not shown) of the same compound?
Answer: The value was 30 min.

Question: What about the “vWF-induced fibrinogen binding to integrin” value [1] of the same compound?
Answer: Its value is “further increased”.

Question: What about the “vWF-induced fibrinogen binding to integrin” value ([1]; row) of the same compound?
Answer: The value was “dramatically increased”.
